Earlier results as cited in patent US10822400B2, “Dynamin 2 inhibitor for the treatment of Duchenne's muscular dystrophy” (UNIVERSITE DE STRASBOURG, priority 2015, dated 2020).
One block for each molecule: values may come before it.

Experiments:
dynamin 2 = target: T1, dynamin 2 (Homo sapiens, UniProt P50570); conditions: read-out: IC50 for inhibition of dynamin 2 (dynamin II)
T1 sequence (P50570 1-870): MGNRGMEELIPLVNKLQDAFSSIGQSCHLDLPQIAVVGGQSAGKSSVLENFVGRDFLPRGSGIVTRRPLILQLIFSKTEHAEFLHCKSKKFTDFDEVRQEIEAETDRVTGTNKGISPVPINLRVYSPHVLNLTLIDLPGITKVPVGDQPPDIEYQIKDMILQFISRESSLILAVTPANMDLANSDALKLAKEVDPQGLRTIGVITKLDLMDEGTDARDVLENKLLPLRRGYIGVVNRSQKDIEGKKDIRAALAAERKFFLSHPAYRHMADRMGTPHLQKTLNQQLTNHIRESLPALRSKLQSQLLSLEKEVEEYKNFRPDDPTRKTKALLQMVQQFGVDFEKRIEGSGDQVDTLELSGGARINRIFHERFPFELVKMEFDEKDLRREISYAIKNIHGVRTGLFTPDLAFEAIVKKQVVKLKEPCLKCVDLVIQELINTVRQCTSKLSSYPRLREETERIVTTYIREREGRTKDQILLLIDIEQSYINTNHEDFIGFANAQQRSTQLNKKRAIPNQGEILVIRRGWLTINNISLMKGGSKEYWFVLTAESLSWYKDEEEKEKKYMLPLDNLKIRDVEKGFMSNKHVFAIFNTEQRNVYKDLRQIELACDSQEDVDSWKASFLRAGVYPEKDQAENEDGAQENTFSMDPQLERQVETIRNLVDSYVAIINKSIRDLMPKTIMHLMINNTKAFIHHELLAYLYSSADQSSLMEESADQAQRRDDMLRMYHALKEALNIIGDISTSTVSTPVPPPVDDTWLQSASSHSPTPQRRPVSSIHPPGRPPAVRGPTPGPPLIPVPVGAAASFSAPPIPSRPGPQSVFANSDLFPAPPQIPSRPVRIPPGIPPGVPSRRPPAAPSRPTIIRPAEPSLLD

mitochondrial division = conditions: read-out: IC50 as mitochondrial division inhibitor
[1] = target: receptor-mediated and synaptic vesicle endocytosis; conditions: read-out: IC50 for inhibition of receptor-mediated and synaptic vesicle endocytosis

IC50 (dynamin 2): 2.6 µM
Structure (SMILES): O=C(NN=Cc1cc(O)c(O)cc1O)c1cc2ccccc2cc1O [Hydroxy-Dynasore, 3-Hydroxy-N′-[(2,4,5-trihydroxyphenyl)methylidene]naphthalene-2-carbohydrazide]

Structure (SMILES): COc1cc(-n2c(S)nc3ccccc3c2=O)c(Cl)cc1Cl [M-divi 1, 3-(2,4-Dichloro-5-methoxyphenyl)-2-sulfanylquinazolin-4(3H)-one]
IC50 (mitochondrial division): 10 µM

IC50 [1]: 2.2 µM
Structure (SMILES): CCCCCCCCCCCCCC[N+](C)(C)C [MiTMAB, Tetradecyltrimethylammonium bromide]
